Drawing on BindingDB's records for doi:10.1016/S0960-894X(01)80190-6 (n/a, 1994), this text covers IC50 for 3 compounds.

Usually IC50 stands for the concentration that gives 50% inhibition. Read a low IC50 as greater potency in that assay.

In the assay the target is Lanosterol 14-alpha demethylase (Candida albicans) (UniProt P10613). Nature of the assay: In vitro inhibition of Lanosterol 14-alpha demethylase (Candida albicans CY1005).
Chain of Lanosterol 14-alpha demethylase (Candida albicans) (P10613 whole entry, looked up): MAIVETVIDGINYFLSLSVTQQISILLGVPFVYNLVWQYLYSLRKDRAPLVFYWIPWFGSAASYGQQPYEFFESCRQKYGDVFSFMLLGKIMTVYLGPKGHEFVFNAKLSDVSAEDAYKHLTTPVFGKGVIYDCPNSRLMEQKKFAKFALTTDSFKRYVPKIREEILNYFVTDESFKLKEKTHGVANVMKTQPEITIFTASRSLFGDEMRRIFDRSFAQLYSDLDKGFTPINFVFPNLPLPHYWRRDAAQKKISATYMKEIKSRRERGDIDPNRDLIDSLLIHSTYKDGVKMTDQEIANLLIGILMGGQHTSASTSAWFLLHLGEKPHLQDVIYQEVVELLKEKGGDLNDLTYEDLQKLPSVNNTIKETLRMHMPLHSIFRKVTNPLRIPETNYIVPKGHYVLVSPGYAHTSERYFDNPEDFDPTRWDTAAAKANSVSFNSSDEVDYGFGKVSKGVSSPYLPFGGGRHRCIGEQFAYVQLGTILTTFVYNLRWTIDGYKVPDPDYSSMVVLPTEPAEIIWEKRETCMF
`CCCCCCC/C=C/C[C@@H]1OC[C@H](C)[C@H](OC)[C@H]1COC(=O)CN`: the IC50 was 0.225 µM.
In turn, `CCc1ccc(CC[C@@H]2CCC(C)(C)[C@H](OC)[C@H]2Cn2ccnc2)cc1` yielded an IC50 of 0.0903 µM.
On to `CC[C@@H](C)n1ncn(-c2ccc(N3CCN(c4ccc(OC[C@H]5CO[C@](Cn6cncn6)(c6ccc(Cl)cc6Cl)O5)cc4)CC3)cc2)c1=O` [ITRAZOLE], for which the IC50 came to 0.085 µM.
